#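 Interpolation was linear, between the two tested concentrations surrounding the appropriate level; five concentrations were tested over 48 hours in 96-well plates. GI50 = concentration required for 50% inhibition of growth. Definition used: TGI = concentration required for complete inhibition of growth.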
# Assays:
# Assay in all cases: NCI-60 cell line screen, 48 h
# [1] = system: K-562 leukemia
# [2] = system: NCI-H522 lung
# [3] = system: SF-539 CNS
# [4] = system: 786-0 renal
# [5] = system: NCI-H226 lung
# [6] = system: KM12 colon
# [7] = system: SK-MEL-5 melanoma
# [8] = system: SF-268 CNS
# [9] = system: OVCAR-8 ovarian
# [10] = system: CCRF-CEM leukemia
SMILES,GI50 [1],TGI [1],GI50 [2],TGI [2],GI50 [3],TGI [3],GI50 [4],TGI [4],GI50 [5],TGI [5],GI50 [6],TGI [6],GI50 [7],TGI [7],TGI [8],TGI [9],TGI [10],GI50 [8],GI50 [9],GI50 [10]
COc1cc2cc(Oc3ccc(NC(=O)Nc4cccc(C(F)(F)F)c4)cc3)c(C)nc2cc1OCCN1CCCCC1,0.802 µM,3.11 µM,1.67 µM,3.33 µM,1.67 µM,3.05 µM,1.72 µM,3.21 µM,1.92 µM,4.62 µM,1.72 µM,3.3 µM,1.71 µM,3.16 µM,–,–,–,–,–,–
N#Cc1ccccc1NC(=O)C(=O)C(C(=O)c1ccccc1-c1ccccc1)C1OC(=O)c2ccccc21 (centres undefined),–,> 100 µM,–,21 µM,–,22.7 µM,–,33.5 µM,–,–,–,41.3 µM,–,> 100 µM,38.8 µM,> 100 µM,> 100 µM,–,–,–
CCOC(=O)c1cccc(=O)c(C(=O)OCC)c1,–,> 100 µM,–,–,–,75.9 µM,–,> 100 µM,–,45.4 µM,–,> 100 µM,–,> 100 µM,–,> 100 µM,65.9 µM,–,–,–
COc1ccc(/C(=C/c2cc(OC)c(OC)c(OC)c2)[N+](=O)[O-])cc1,1.71 µM,> 100 µM,1.95 µM,3.62 µM,1.61 µM,2.98 µM,1.66 µM,3.05 µM,2.29 µM,5.78 µM,1.89 µM,3.99 µM,1.69 µM,3.11 µM,3.64 µM,8.12 µM,–,1.79 µM,2.67 µM,–
COc1cc2c3c(n(C)c(=O)c2cc1OC)-c1cc2c(cc1/C3=C\CCCCN)OCO2,6.22 µM,> 100 µM,2.02 µM,9.24 µM,2.83 µM,6.23 µM,5.23 µM,19.6 µM,–,–,1.95 µM,7.28 µM,13.2 µM,27.3 µM,–,14.2 µM,–,–,3.77 µM,–
O=C1C2CC(Cl)C(SSC3CC4C(=O)N(SC(Cl)(Cl)C(Cl)Cl)C(=O)C4CC3Cl)CC2C(=O)N1SC(Cl)(Cl)C(Cl)Cl (centres undefined),–,5.01 µM,–,1.5 µM,–,6.89 µM,–,3.65 µM,–,26.4 µM,–,> 51 µM,–,4.55 µM,3.91 µM,3.5 µM,–,–,–,–
COc1cc2c(cc1OC)C(=O)C(Br)CC2 (centres undefined),3.96 µM,> 100 µM,1.57 µM,3.17 µM,3.12 µM,11.2 µM,4.01 µM,13.4 µM,–,–,5.77 µM,19.3 µM,1.7 µM,3.19 µM,15.7 µM,11.7 µM,11.9 µM,4.36 µM,3.28 µM,2.82 µM
COc1cccc(NC(=O)c2sc3nc4c(cc3c2N)CCCC4)c1,–,–,0.806 µM,> 100 µM,0.368 µM,12.8 µM,0.42 µM,19.2 µM,2.6 µM,43.8 µM,0.414 µM,> 100 µM,0.303 µM,2.67 µM,37 µM,> 100 µM,19.2 µM,0.714 µM,2.58 µM,0.347 µM
CC(Cc1ccc(Cl)cc1Cl)NO (centres undefined),–,> 100 µM,–,> 100 µM,–,–,–,> 100 µM,–,> 100 µM,–,> 100 µM,–,> 100 µM,> 100 µM,> 100 µM,> 100 µM,–,–,–
CC12OC(C(=O)C13CC3)C1C(=O)c3ccccc3C(=O)C12 (centres undefined),36.8 µM,> 100 µM,53.3 µM,> 100 µM,24.2 µM,54.6 µM,18.2 µM,37.6 µM,–,–,19.9 µM,52 µM,–,–,46.2 µM,48.4 µM,42.5 µM,19.2 µM,20.3 µM,13.9 µM
COc1c(OC(C)=O)ccc(/C=C2\N=C(C)OC2=O)c1[N+](=O)[O-],–,> 100 µM,–,> 100 µM,–,> 100 µM,–,> 100 µM,–,–,–,> 100 µM,–,> 100 µM,> 100 µM,> 100 µM,> 100 µM,–,–,–
COC(=O)Nc1nc2ccc(C(=O)c3ccc[nH]3)cc2[nH]1,–,–,–,–,–,42.3 µM,–,> 100 µM,–,–,–,> 100 µM,–,–,> 100 µM,> 100 µM,12.7 µM,–,–,–
Cc1ccc2c(c1)NC(c1ccc(C(=O)O)cc1)c1cccn1-2 (centres undefined),–,> 100 µM,–,–,–,> 100 µM,–,43.1 µM,–,> 100 µM,–,> 100 µM,–,> 100 µM,–,–,> 100 µM,–,–,–
C1=CN2C[n+]3cccc(OCc4ccccc4)c3N=C2C(OCc2ccccc2)=C1,–,42.4 µM,–,15.8 µM,–,26.7 µM,–,> 100 µM,–,> 100 µM,–,–,–,21.2 µM,> 100 µM,> 100 µM,–,–,–,–
O=[N+]([O-])c1ccc(N/N=C\c2cc(Cl)ccc2O)nc1,2.09 µM,> 100 µM,–,–,3.02 µM,> 100 µM,2.18 µM,11.2 µM,20.9 µM,> 100 µM,1.06 µM,> 100 µM,1.81 µM,8.25 µM,22.9 µM,14.1 µM,> 100 µM,0.595 µM,0.97 µM,0.386 µM
C1CCC([PH+](C2CCCCC2)C2CCCCC2[PH+](C2CCCCC2)C2CCCCC2)CC1.[Au].[CH-]1CCCCC1C1CCCC[N-]1 (centres undefined),0.229 µM,> 100 µM,–,–,0.337 µM,1.28 µM,0.43 µM,1.9 µM,–,–,–,–,0.179 µM,0.332 µM,–,> 100 µM,> 100 µM,–,0.278 µM,0.426 µM
CC(C)=CC(=O)CC(=O)C(=O)Nc1ccc(C)c(C)c1,–,> 100 µM,–,> 100 µM,–,> 100 µM,–,> 100 µM,–,> 100 µM,–,> 100 µM,–,–,> 100 µM,–,> 100 µM,–,–,–
Cc1ccc(S(=O)(=O)N/N=C/C(Br)=C(/Br)C(=O)O)cc1,–,–,–,–,–,14.5 µM,–,14.8 µM,–,27.9 µM,–,33.1 µM,–,25.8 µM,30.2 µM,9.93 µM,9.67 µM,–,–,–

# From PubChem BioAssay (NCI)
